Values quoted from earlier work as cited in patent publication US20110177137A1, “NOVEL DOSAGE FORM OF PALIPERIDONE AND PROCESS FOR PREPARING THE SAME” (INTAS PHARMACEUTICALS LIMITED, priority 2008, published 2011).

solubility in 0.1 N HCl (0.1 N HCl): soluble
solubility in methyl chloride (methyl chloride): partly soluble
solubility in water (water): insoluble
Compound: Cc1nc2n(c(=O)c1CCN1CCC(c3noc4cc(F)ccc34)CC1)CCCC2O (stereo not drawn) [Paliperidone]
